Reference: patent US20150336889A1, “INDOLE DERIVATIVES, PHARMACEUTICAL COMPOSITIONS CONTAINING SUCH INDOLES AND THEIR USE AS DNA METHYLATION MODULATORS” (IKERCHEM, S.L., priority 2012, published 2015)
Counter-ions that a name gives are not always drawn.

What was measured:
[1] = test system: MCF-7; assay: Cancer cell growth inhibition, MCF-7; type: cell-based; conditions: Homo sapiens, MCF7; Breast, MCF-7, cell viability, 72 h
Experimental: (§1) Cell culture-based assays were used to evaluate the ability of compounds of the invention to inhibit cancer cell growth inhibition.
(§2) Cells were obtained from the American Type Culture Collection (ATCC) and European Collection of Cell Cultures (ECACC).
(§3) Cells were thawed in their appropriate media plus supplements (see table below). Cells were passaged at confluence by washing once in HBSS cation-free followed by a 3 minutes incubation with trypsin ([0.5 μg/ml]/EDTA [0.2 μg/ml]) (Gibco-BRL, 15400054) solution in HBSS at 37° C. (except non-adherent cell lines), and transferred to their appropriate media plus supplements. Prior to seeding at defined cell concentration, cells were recovered in medium, centrifuged and taken up in medium, and counted.
(§4) Cells were plated at 3000/5000/10000 cells/well in 100 μl media in tissue culture 96 well plates (Cultek). After 24 h, media was supplemented by 100 μl/well of diluted IPDNs at 100 μM.
(§5) The Hexosaminidase assay was used for the adherent cell lines, whereas the AlamarBlue® assay was used for the non-adherent cell lines.
(§6) Dose-response curves were generated by serial dilutions (1:1) of the compounds. […] Reagent blanks, containing media plus colorimetric reagent without cells were run on each plate. Blank values were subtracted from test values and were routinely 5-10% of uninhibited control values. Plates were incubated 72 h, and living cell number was determined by AlamarBlue® and Hexosaminidase test. The advantages of using those assays are that both can be done in the same microwell plate. AlamarBlue® assay: plates were incubated 72 h and living cell number was determined by AlamarBlue (Biosource DAL1100). After 4 h incubation at 37° C., relative fluorescent intensity, which correlates with the number of living cells, was read in a Cytofluor plate reader (Millipore) at 535/590 nm (Excitation/emission). The hexosaminidase activity was measured according to the following protocol: the media was removed and cells were washed once with PBS.
(§7) Data analysis was done by calculating the percentage of cell viability normalized in front of negative control values, which were considered as a 100%. The curve was adjusted using a sigmoidal dose-response (variable slope) equation and EC50 values were obtained from the equation
(§8) where, X is the logarithm of concentration. Y is the response. Bottom is the Y value at the bottom plateau Top is the Y value at the top plateau LogEC50 is the X value when the response is halfway between Bottom and Top. With different kinds of variables, this variable is sometimes called ED50 (effective dose, 50%), or IC50 (inhibitory concentration, 50%, used when the curve goes downhill).

[2] = test system: T47D; assay: Cancer cell growth inhibition, T47D; type: cell-based; conditions: Homo sapiens, Breast, cell viability, 72 h
Experimental: as §1, §2, §3, §4, §5, §6, §7, §8

[3] = test system: HCT-116; assay: Cancer cell growth inhibition, HCT-116; type: cell-based; conditions: Homo sapiens; Colorectal, HCT-116, cell viability, 72 h
Experimental: as §1, §2, §3, §4, §5, §6, §7, §8

[4] = test system: NCI-H1975; assay: Cancer cell growth inhibition, NCI-H1975; type: cell-based; conditions: Homo sapiens; Lung, NCI-H1975, cell viability, 72 h
Experimental: as §1, §2, §3, §4, §5, §6, §7, §8

[5] = test system: NCI-H358; assay: Cancer cell growth inhibition, NCI-H358; type: cell-based; conditions: Homo sapiens; Lung, NCI-H358, cell viability, 72 h
Experimental: as §1, §2, §3, §4, §5, §6, §7, §8

[6] = test system: SK-HEP-1; assay: Cancer cell growth inhibition, SK-HEP-1; type: cell-based; conditions: Homo sapiens, SK-HEP1; Liver, SK-HEP-1, cell viability, 72 h
Experimental: as §1, §2, §3, §4, §5
as §6, with “PBS. […]” for “PBS.”

[7] = test system: MiaPaCa-2; assay: Cancer cell growth inhibition, MiaPaCa-2; type: cell-based; conditions: Homo sapiens, MIA PaCa-2; Pancreatic, MiaPaCa-2, cell viability, 72 h
Experimental: as §1, §2, §3, §4, §5, §6, §7, §8

[8] = test system: MDA-MB-435; assay: Cancer cell growth inhibition, MDA-MB-435; type: cell-based; conditions: Homo sapiens; Melanoma, MDA-MB-435, cell viability, 72 h
Experimental: as §1, §2, §3, §4, §5, §6, §7, §8

[9] = test system: Daoy; assay: Cancer cell growth inhibition, Daoy; type: cell-based; conditions: Homo sapiens, Brain, cell viability, 72 h
Experimental: as §1, §2, §3, §4, §5, §6, §7, §8

[10] = test system: U-87MG; assay: Cancer cell growth inhibition, U-87MG; type: cell-based; conditions: Homo sapiens, Brain, cell viability, 72 h
Experimental: as §1, §2, §3, §4, §5, §6, §7, §8

[11] = test system: A-431; assay: Cancer cell growth inhibition, A-431; type: cell-based; conditions: Homo sapiens; Epidermoid, A-431, cell viability, 72 h
Experimental: as §1, §2, §3, §4, §5, §6, §7, §8

[12] = test system: CCFR-CEM; assay: Cancer cell growth inhibition, CCFR-CEM; type: cell-based; conditions: Hematologic, cell viability, 72 h
Experimental: as §1, §2, §3, §4, §5, §6, §7, §8

[13] = test system: Jurkat; assay: Cancer cell growth inhibition, Jurkat; type: cell-based; conditions: Homo sapiens, Hematologic, cell viability, 72 h
Experimental: as §1, §2, §3, §4, §5, §6, §7, §8

[14] = test system: RPMI-8226; assay: Cancer cell growth inhibition, RPMI-8226; type: cell-based; conditions: Homo sapiens; Multiple Myelome, RPMI-8226, cell viability, 72 h
Experimental: as §1, §2, §3, §4, §5, §6, §7, §8

[15] = target: T1, Human DNMT1 (Homo sapiens, UniProt P26358); assay: DNMT1 enzymatic activity inhibition, radioisotope-based 3H-SAM filter binding assay; type: biochemical; conditions: 1 μM SAM, 25 nM DNMT1, 0.005 mg/ml Poly(dI-dC), 30° C. 1 hour, 10-dose
T1 construct: a-a 2-1632, with N-terminal GST tag; GST (N)
T1 sequence (P26358 2-1632 isoform P26358-2): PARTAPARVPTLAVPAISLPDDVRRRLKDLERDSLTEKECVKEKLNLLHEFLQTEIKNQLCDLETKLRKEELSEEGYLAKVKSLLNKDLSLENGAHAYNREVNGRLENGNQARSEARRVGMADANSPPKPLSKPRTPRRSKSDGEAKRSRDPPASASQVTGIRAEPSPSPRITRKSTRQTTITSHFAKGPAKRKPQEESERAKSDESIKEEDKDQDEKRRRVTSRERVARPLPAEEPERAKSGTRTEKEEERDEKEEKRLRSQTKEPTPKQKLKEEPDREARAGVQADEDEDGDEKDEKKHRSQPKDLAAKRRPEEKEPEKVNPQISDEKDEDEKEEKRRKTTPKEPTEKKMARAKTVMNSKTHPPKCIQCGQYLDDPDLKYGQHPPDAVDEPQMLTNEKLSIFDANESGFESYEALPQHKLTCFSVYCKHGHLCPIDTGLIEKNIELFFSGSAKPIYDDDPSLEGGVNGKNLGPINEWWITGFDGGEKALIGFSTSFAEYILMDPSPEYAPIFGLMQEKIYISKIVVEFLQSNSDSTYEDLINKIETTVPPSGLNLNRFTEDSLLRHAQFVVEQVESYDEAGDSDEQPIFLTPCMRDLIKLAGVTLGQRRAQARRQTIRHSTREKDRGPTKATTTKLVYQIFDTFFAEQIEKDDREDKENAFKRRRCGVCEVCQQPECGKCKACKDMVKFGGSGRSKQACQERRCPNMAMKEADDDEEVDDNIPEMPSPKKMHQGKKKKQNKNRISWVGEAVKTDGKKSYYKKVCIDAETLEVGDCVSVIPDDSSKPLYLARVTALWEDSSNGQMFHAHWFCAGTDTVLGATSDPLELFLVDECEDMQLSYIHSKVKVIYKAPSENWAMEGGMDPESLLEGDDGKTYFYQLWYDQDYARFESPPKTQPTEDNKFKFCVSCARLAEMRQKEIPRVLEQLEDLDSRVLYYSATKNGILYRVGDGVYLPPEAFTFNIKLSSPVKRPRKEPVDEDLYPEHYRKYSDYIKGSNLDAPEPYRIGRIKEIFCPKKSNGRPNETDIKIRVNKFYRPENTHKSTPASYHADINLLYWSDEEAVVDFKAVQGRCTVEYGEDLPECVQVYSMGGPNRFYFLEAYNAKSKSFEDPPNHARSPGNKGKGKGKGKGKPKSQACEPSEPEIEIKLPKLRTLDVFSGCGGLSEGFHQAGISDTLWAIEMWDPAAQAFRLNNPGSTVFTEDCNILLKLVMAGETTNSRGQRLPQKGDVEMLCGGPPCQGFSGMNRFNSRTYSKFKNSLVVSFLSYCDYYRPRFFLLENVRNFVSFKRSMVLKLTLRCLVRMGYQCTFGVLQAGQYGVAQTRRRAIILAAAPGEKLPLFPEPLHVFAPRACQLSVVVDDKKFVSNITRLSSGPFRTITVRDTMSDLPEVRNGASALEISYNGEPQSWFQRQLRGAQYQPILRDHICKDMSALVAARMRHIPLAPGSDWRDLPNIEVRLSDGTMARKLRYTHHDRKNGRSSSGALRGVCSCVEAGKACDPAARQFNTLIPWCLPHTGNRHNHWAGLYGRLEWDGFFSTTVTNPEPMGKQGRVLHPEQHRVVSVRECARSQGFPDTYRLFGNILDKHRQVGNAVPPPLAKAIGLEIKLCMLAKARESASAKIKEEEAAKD
Experimental: The inhibition of the enzymatic activity of DNMT1 was tested using low volume radioisotope-based assay which uses tritium-labeled AdoMet (^3H-SAM) as a methyl donor. Inhibitors diluted in DMSO were added by using acoustic technology (Echo550, Labcyte Inc. Sunnyvale, Calif.) into enzyme/substrate mixture in nano-liter range. The reaction was initiated by the addition of ^3H-SAM, and incubated at 30° C. for 1 hour. Total final methylations on the substrate poly(dI-dC) were detected by a filter binding approach. Data analysis was performed using GraphPad Prism software (La Jolla, Calif.) for IC50 curve fits.

[16] = test system: MDA-MB-468; assay: Cancer cell growth inhibition, MDA-MB-468; type: cell-based; conditions: Homo sapiens; Breast, MDA-MB-468, cell viability, 72 h
Experimental: as §1, §2, §3, §4, §5
as §6, with “PBS. […]” for “PBS.”

[17] = test system: PC3; assay: Cancer cell growth inhibition, PC3; type: cell-based; conditions: Homo sapiens, PC-3; Prostate, PC3, cell viability, 72 h
Experimental: as §1, §2, §3, §4, §5, §6, §7, §8

[18] = test system: LnCaP; assay: Cancer cell growth inhibition, LnCaP; type: cell-based; conditions: Homo sapiens, Prostate, cell viability, 72 h
Experimental: as §1, §2, §3, §4, §5, §6, §7, §8

[19] = test system: HT-29; assay: Cancer cell growth inhibition, HT-29; type: cell-based; conditions: Homo sapiens; Colorectal, HT-29, cell viability, 72 h
Experimental: as §1, §2, §3, §4, §5
as §6, with “PBS. […]” for “PBS.”

[20] = test system: A-549; assay: Cancer cell growth inhibition, A-549; type: cell-based; conditions: Homo sapiens, A549; Lung, A-549, cell viability, 72 h
Experimental: as §1, §2, §3, §4, §5, §6, §7, §8

[21] = test system: Panc-1; assay: Cancer cell growth inhibition, Panc-1; type: cell-based; conditions: Homo sapiens; Pancreatic, Panc-1, cell viability, 72 h
Experimental: as §1, §2, §3, §4, §5, §6, §7, §8

[22] = test system: 143B; assay: Cancer cell growth inhibition, 143B; type: cell-based; conditions: Homo sapiens, Osteosarcoma, cell viability, 72 h
Experimental: as §1, §2, §3, §4, §5, §6, §7, §8

[23] = test system: RAMOS; assay: Cancer cell growth inhibition, RAMOS; type: cell-based; conditions: Homo sapiens, Hematologic, cell viability, 72 h
Experimental: as §1, §2, §3, §4, §5, §6, §7, §8

[24] = test system: SK-BR-3; assay: Cancer cell growth inhibition, SK-BR-3; type: cell-based; conditions: Homo sapiens; Breast, SK-BR-3, cell viability, 72 h
Experimental: as §1, §2, §3, §4, §5
as §6, with “PBS. […]” for “PBS.”

[25] = test system: HT-1080; assay: Cancer cell growth inhibition, HT-1080; type: cell-based; conditions: Homo sapiens; HT-1080, cell viability, 72 h
Experimental: as §1, §2, §3, §4, §5, §6, §7, §8

[26] = test system: BxPC3; assay: Cancer cell growth inhibition, BxPC3; type: cell-based; conditions: Homo sapiens, BXPC-3; Pancreatic, BxPC3, cell viability, 72 h
Experimental: as §1, §2, §3, §4, §5
as §6, with “PBS. […]” for “PBS.”

[27] = test system: U-373MG; assay: Cancer cell growth inhibition, U-373MG; type: cell-based; conditions: Homo sapiens, U373 MG, Brain, cell viability, 72 h
Experimental: as §1, §2, §3, §4, §5
as §6, with “PBS. […]” for “PBS.”

[28] = test system: HeLa; assay: Cancer cell growth inhibition, HeLa; type: cell-based; conditions: Homo sapiens, Cervical, cell viability, 72 h
Experimental: as §1, §2, §3, §4, §5
as §6, with “PBS. […]” for “PBS.”

Structure (SMILES)	EC50 [3]	EC50 [5]	EC50 [8]	EC50 [9]	EC50 [10]	EC50 [11]	EC50 [12]	EC50 [13]	IC50 [15]	other results
COc1cc(OC)c2c(-c3ccc(OC(C)=O)c(OC(C)=O)c3)cn(CC(=O)c3ccc(OC(C)=O)c(OC(C)=O)c3)c2c1 [Example 30, 4-{1-[2-(3,4-diacetoxyphenyl)-2-oxoethyl]-4,6-dimethoxy-1H-indol-3-yl}-1,2-phenylene diacetate]	64 µM	53 µM	23 µM	50 µM	75 µM	88 µM	40 µM	49 µM	–	EC50 [1]: 88 µM; EC50 [2]: 47 µM; EC50 [4]: 47 µM; EC50 [6]: 39 µM; EC50 [7]: 55 µM; EC50 [14]: 36 µM
COc1cc(OC)c2c(-c3ccc(O)c(O)c3)cn(CC(=O)c3ccc(O)c(O)c3)c2c1 [Example 8, 1-(3,4-dihydroxyphenyl)-2-[3-(3,4-dihydroxyphenyl)-4,6-dimethoxy-1H-indol-1-yl]ethanone]	96 µM	50 µM	23 µM	50 µM	22 µM	59 µM	34 µM	56 µM	6.85 µM	EC50 [16]: 94 µM; EC50 [17]: 48 µM; EC50 [18]: 27 µM; EC50 [19]: 59 µM; EC50 [20]: 93 µM; EC50 [21]: 55 µM; EC50 [22]: 19 µM; EC50 [23]: 55 µM
COc1ccc2c(-c3ccc(O)c(O)c3)cn(CC(=O)c3ccc(O)c(O)c3)c2c1 [Example 4, 1-(3,4-dihydroxyphenyl)-2-[3-(3,4-dihydroxyphenyl)-6-methoxy-1H-indol-1-yl]ethanone]	51 µM	11 µM	14 µM	47 µM	20 µM	30 µM	45 µM	24 µM	13.8 µM	EC50 [1]: 30 µM; EC50 [24]: 20 µM; EC50 [18]: 28 µM; EC50 [20]: 97 µM; EC50 [4]: 46 µM; EC50 [25]: 31 µM; EC50 [7]: 66 µM; EC50 [21]: 27 µM; EC50 [26]: 53 µM; EC50 [27]: 21 µM; EC50 [28]: 36 µM; EC50 [23]: 51 µM
O=C(Cn1cc(-c2ccc(O)cc2)c2ccccc21)c1ccc(O)cc1 [Example 20, 1-(4-hydroxyphenyl)-2-[3-(4-hydroxyphenyl)-1H-indol-1-yl]ethanone]	–	–	–	–	–	–	–	–	241 µM	–
COc1ccc2c(-c3cccc(O)c3)cn(CC(=O)c3cccc(O)c3)c2c1 [Example 2, 1-(3-hydroxyphenyl)-2-[3-(3-hydroxyphenyl)-6-methoxy-1H-indol-1-yl]ethanone]	–	–	–	–	–	–	–	–	30.6 µM	–
O=C(Cn1cc(-c2ccc(O)cc2)c2ccc(O)cc21)c1ccc(O)cc1 [Example 17, 2-[6-hydroxy-3-(4-hydroxyphenyl)-1H-indol-1-yl]-1-(4-hydroxyphenyl) ethanone]	–	–	–	–	–	–	–	–	50.9 µM	–
COc1cc(OC)cc(N(CC(=O)c2ccc(O)c(O)c2O)CC(=O)c2ccc(O)c(O)c2O)c1 [Example 24, 2,2′-[(3,5-dimethoxyphenyl)azanediyl]-bis[1-(2,3,4-trihydroxyphenyl)ethanone]]	–	–	–	–	–	–	–	–	15.6 µM	–
COc1cc(OC)c2c(-c3ccc(O)cc3)cn(CC(=O)c3ccc(O)cc3)c2c1 [Example 26, potassium phenoxide salt of 1-(4-hydroxyphenyl)-2-[3-(4-hydroxyphenyl)-4,6-dimethoxy-1H-indol-1-yl]ethanone]	–	–	–	–	–	–	–	–	40.4 µM	–
COc1cccc(N(CC(=O)c2ccc(O)c(O)c2O)CC(=O)c2ccc(O)c(O)c2O)c1 [Example 23, 2,2′-[(3-methoxyphenyl)azanediyl]-bis[1-(2,3,4-trihydroxyphenyl)ethanone]]	–	–	–	–	–	–	–	–	27.4 µM	–
COc1ccc2c(-c3ccc(O)c(O)c3O)cn(CC(=O)c3ccc(O)c(O)c3O)c2c1 [Example 5, 2-[6-methoxy-3-(2,3,4-trihydroxyphenyl)-1H-indol-1-yl]-1-(2,3,4-trihydroxyphenyl) ethanone]	–	–	–	–	–	–	–	–	3.53 µM	–
